Key:
[1] = tested on: human adipocytes; assay: Assay of the free fatty acids (lipolytic activity) in isolated human adipocytes in suspension; type: cell-based; conditions: incubation concentration 0.0019 wt % DE
Source text: Hydrolysis of the triglycerides to nonesterified fatty acids and glycerol is called lipolysis. Triglycerides are stored in the adipocytes and constitute the fat reserve. For this reserve to diminish, which is the desired aim when slimming products are used, the triglycerides should be hydrolysed in the form of fatty acids, which in their case can be removed from the cell. Hydrolysis of the triglycerides calls into play a hormone-dependent lipase which must be phosphorylated in order to be active. The phosphorylation step uses a kinase and cAMP. An increase in the cAMP content of the adipocytes is necessary for promoting the activity of the lipase and therefore the lipolysis. The method described consists in incubating the products in the presence of human adipocytes in suspension, followed by […].
The test is carried out using human adipocytes isolated and prepared as a cellular suspension. The adipocytes are isolated from the subcutaneous abdominal adipose tissue recovered during plastic surgery operations (abdominal plastic surgery operations) performed on women. The cells are isolated from fresh tissue. The adipose tissue is isolated and dissociated by the action of a collagenase (SIGMA™, 1 mg/ml, 30 minutes at 37° C., gentle stirring). Collagenase digests the connective tissue present in the adipose tissue. After digestion, the cells are filtered and washed in an appropriate culture medium containing MEM medium free of phenol red, free of glutamine (SIGMA)+2.2 mg/ml of sodium bicarbonate (GIBCO)+50 IU of penicillin (BIOWHITTAKER™)+50 μg/ml of streptomycin (BIOWHITTAKER™)+1% (v/v) of L-glutamine (BIOWHITTAKER™)+0.5% of lipid-free serum albumin (SIGMA™). The adipocyte suspension is used immediately after its preparation.
The test products are diluted in the adipocyte culture medium. They are incubated with the cells in suspension for two hours at 37° C. (250 μl of product+250 μl of adipocyte suspension).
After the incubation, the cell lysis is checked visually by the presence of a lipid layer at the surface of the cellular suspension. The supernatant media are collected. The free fatty acids are assayed by spectrophotometry using a commercial kit (NEFA™ C kit, WAKO), with reference to a fatty acid calibration series. The lypolytic activity of the products is evaluated relative to a control group incubated in the presence of adipocytes and in the absence of product. […] Five assays are performed for each of the test products which are as follows:
This assay is repeated by carrying out new assays at different concentrations.

[2] = tested on: lipoprotein lipase (LPL); assay: Measurement of the activity of lipoprotein lipase (PNPB hydrolysis, 400 nm); type: biochemical, pseudomonas species; conditions: relative to the control
Procedure: Lipoprotein lipase (LPL) is an enzyme found in the extracellular compartment of adipocytes. It brings about the hydrolysis of the triglycerides contained in the chylomicrons to fatty acids and glycerol. The latter can thus penetrate into the adipocytes to be stored therein. […] It is based on an enzymatic test using a purified enzyme. A lipoprotein lipase (SIGMA, pseudomonas species) is incubated in the presence of a substrate, p-nitrophenyl butyrate (PNPB), which absorbs light at 400 nm after hydrolysis. [drawing 6] The enzyme, at 20 U/ml, is incubated in the presence of the test product and PNPB, at 0.9 mM. The kinetics of appearance of p-nitrophenol is performed at 37° C. for 10 minutes. It is monitored by measuring the absorbance at 400 nm. The results are presented in the following table, as a percentage inhibition of the lipoprotein lipase activity relative to the control.

[3] = target: T1, human recombinant MMP-2 (Homo sapiens, UniProt P08253); assay: Measurement of the activity of metalloproteinase MMP-2 (DQ-gelatin fluorescence); type: biochemical; conditions: incubation concentration 0.1 % DE; relative to the control
T1 construct: purchased CALBIOCHEM PF023
T1 sequence (P08253 110-660): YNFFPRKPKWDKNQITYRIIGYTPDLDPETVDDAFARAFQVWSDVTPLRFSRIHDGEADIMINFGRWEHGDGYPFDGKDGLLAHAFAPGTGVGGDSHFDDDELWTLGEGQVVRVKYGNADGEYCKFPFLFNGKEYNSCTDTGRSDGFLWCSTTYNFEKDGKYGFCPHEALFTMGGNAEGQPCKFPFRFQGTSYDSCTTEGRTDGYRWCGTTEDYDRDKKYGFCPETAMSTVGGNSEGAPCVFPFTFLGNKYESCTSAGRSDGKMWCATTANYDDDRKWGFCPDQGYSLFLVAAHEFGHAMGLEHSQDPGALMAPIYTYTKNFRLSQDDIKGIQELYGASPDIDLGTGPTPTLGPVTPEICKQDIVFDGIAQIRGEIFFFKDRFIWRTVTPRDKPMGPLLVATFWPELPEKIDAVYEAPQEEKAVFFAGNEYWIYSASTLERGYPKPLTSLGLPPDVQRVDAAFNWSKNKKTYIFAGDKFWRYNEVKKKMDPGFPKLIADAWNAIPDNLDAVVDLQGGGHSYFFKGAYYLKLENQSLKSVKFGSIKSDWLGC
Procedure: (§1) The objective of this test is to evaluate the inhibitory capacity of a product on the enzymatic activity of MMP-2 and MMP-9. This test is based on an enzymatic reaction between purified MMP-2 or MMP-9 and a specific substrate containing a chromophore. The degradation of the chromogenic substrate by the enzyme leads to the production of fluorescence monitored by fluorimetry.
(§2) (ii)—A human recombinant MMP-2 (CALBIOCHEM, PF023) is incubated, at 0.1 μg/ml, in the presence of the product and the chromogenic substrate, DQ-gelatin conjugated with fluorescein (MOLECULAR PROBE, D12054) at 10 μg/ml. The reaction mixture is incubated overnight at room temperature, protected from light. The quantity of DQ-gelatin degraded is measured by fluorescence (Ex: 355 nm; Em: 460 nm).
(§3) The reactivity of the enzymatic system is systematically monitored for the measurement of the effect of a metalloproteinase inhibitor, 1,10-phenanthroline. The results are presented in the following table, as a percentage inhibition of the enzymatic activity of MMP-2 and MMP-9 relative to the control.

[4] = target: T2, human recombinant MMP-9 (Homo sapiens, UniProt P14780); assay: Measurement of the activity of metalloproteinase MMP-9 (DQ-gelatin fluorescence); type: biochemical; conditions: incubation concentration 0.1 % DE; relative to the control
T2 construct: purchased CALBIOCHEM PF024
T2 sequence (P14780 107-707 limits assumed): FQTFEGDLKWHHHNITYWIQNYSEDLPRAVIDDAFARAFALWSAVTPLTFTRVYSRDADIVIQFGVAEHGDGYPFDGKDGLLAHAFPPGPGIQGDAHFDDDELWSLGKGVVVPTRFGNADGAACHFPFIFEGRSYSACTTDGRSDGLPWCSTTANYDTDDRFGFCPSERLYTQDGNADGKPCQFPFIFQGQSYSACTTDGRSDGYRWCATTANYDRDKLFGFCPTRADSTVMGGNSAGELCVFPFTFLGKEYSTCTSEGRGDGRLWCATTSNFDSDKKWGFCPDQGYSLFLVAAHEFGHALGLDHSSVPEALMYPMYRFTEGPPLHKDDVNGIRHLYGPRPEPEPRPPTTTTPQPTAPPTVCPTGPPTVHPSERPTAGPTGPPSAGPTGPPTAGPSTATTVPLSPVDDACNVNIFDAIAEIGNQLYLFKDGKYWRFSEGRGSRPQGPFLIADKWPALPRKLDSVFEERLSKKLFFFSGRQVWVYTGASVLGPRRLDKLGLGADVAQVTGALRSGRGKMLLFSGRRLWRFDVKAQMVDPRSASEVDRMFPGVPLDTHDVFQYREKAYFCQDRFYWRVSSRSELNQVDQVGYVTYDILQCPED
Procedure: as §1
as §2, with “(i)—A” for “(ii)—A”, “MMP-9” for “MMP-2”, “PF024)” for “PF023)”, “0.05” for “0.1”
as §3

Cn1c(=O)c2c(ncn2C)n(C)c1=O [Caffeine, 1,3,7-trimethyl-xanthine]
Free fatty acid concentration ([1]; 2 h at 37° C., mean of five assays): 15.10 ± 4.11 µM
Lipolytic activity (compared with the control = 100) ([1]; control = 100): 131
Percentage inhibition of LPL ([2]; incubation concentration 0.01 % DE): 0%
Percentage inhibition of LPL ([2]; incubation concentration 0.1 % DE): 0%
MMP-2 inhibiting effect [3]: 0%
MMP-9 inhibiting effect [4]: 0%

From US20040166079A1, “N-Lauroyl amino acid composition for slimming the human body” (priority 2003, published 2004)
